Data: ChEMBL document CHEMBL5120880, “Peptidomimetics: An Overview of Recent Medicinal Chemistry Efforts toward the Discovery of Novel Small Molecule Inhibitors” (J Med Chem, 2022)
Values after ≈ are worked out from the molar mass of the structure shown.

Experiments:
Hepatitis C virus [1] = assay: Antiviral activity against HCV genotype 1b/3a NS5A infected in human Huh-7 cells by phenotypic assay; assay type: functional, organism-based, Hepacivirus hominis
Hepatitis C virus [2] = assay: Antiviral activity against HCV genotype 1b/6a NS5A infected in human Huh-7 cells by phenotypic assay; assay type: functional, organism-based, Hepacivirus hominis
SARS-CoV-2 [3] = assay: Antiviral activity against SARS-CoV-2 by cell based assay; assay type: functional, organism-based; conditions: Severe acute respiratory syndrome coronavirus 2
[4] = tested on: Middle East respiratory syndrome-related coronavirus; assay: microbe, parasite or virus in culture
SARS-CoV = assay: microbe, parasite or virus in culture; conditions: Severe acute respiratory syndrome-related coronavirus
SARS-CoV-2 [5] = assay: microbe, parasite or virus in culture; conditions: Severe acute respiratory syndrome coronavirus 2
Murine hepatitis virus = assay: microbe, parasite or virus in culture; conditions: Murine coronavirus
[6] = tested on: Feline infectious peritonitis virus; assay: microbe, parasite or virus in culture; conditions: Alphacoronavirus 1
[7] = tested on: Middle East respiratory syndrome-related coronavirus; assay: Antiviral activity against MERS-CoV by cell based assay; assay type: functional, organism-based
[8] = Inhibition of Acinetobacter baumannii […] assessed as measuring NADH consumption rate
[9] = molecular target: T1, Enoyl-[acyl-carrier-protein] reductase [NADH] FabI (Escherichia coli K-12, UniProt P0AEK4); assay: Inhibition of Escherichia coli […] assessed as measuring NADH consumption rate
T1 sequence (P0AEK4 whole entry): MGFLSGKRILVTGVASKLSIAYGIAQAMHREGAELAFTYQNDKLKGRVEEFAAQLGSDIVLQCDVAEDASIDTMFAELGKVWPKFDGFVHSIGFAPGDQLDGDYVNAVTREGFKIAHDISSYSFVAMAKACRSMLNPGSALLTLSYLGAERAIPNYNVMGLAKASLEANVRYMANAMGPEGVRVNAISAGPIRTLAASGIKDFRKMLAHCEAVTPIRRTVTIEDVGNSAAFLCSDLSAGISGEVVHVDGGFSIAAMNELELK

Escherichia coli = assay: Antibacterial activity against Escherichia coli AG100 assessed as minimal inhibitory concentration; assay type: functional
Acinetobacter baumannii = assay: Antibacterial activity against Acinetobacter baumannii ATCC BAA1605 assessed as minimal inhibitory concentration; assay type: functional
[10] = tested on: Klebsiella pneumoniae subsp. ozaenae; assay: Antibacterial activity against Klebsiella pneumoniae A6030827 assessed as minimal inhibitory concentration; assay type: functional
Staphylococcus aureus = assay: Antibacterial activity against Staphylococcus aureus ATCC 29213 assessed as minimal inhibitory concentration; assay type: functional

Structure (SMILES) | IC50 (SARS-CoV-2 [5]) [nM] | EC50 (Murine hepatitis virus) [nM] | EC50 [6] [nM] | MIC (Escherichia coli) [µg/mL] | MIC (Acinetobacter baumannii) [µg/mL] | MIC (Staphylococcus aureus) [µg/mL] | also measured
COC(=O)N[C@H](C(=O)N1CCC[C@H]1c1ncc(-c2ccc(-c3ccc(-c4cnc([C@@H]5CCCN5C(=O)[C@@H](NC(=O)OC)C(C)C)[nH]4)cc3)cc2)[nH]1)C(C)C | – | – | – | – | – | – | EC50 (Hepatitis C virus [1]): 0.105 nM; EC50 (Hepatitis C virus [2]): 0.047 nM
CC(C)C[C@H](NC(=O)OC1CCC(F)(F)CC1)C(=O)N[C@H](C=O)C[C@H]1CCNC1=O | 1500 | 80 | 120 | – | – | – | EC50 (SARS-CoV-2 [3]): 110 nM; IC50 [4]: 70 nM; IC50 (SARS-CoV): 2300 nM
CC(C)C[C@H](NC(=O)OCC1CCC(F)(F)CC1)C(=O)N[C@H](C=O)C[C@H]1CCNC1=O | 900 | – | 80 | – | – | – | EC50 [7]: 30 nM
CCCCC1CCC(OC(=O)N[C@@H](CC(C)C)C(=O)N[C@H](C=O)C[C@H]2CCNC2=O)CC1 (stereo partly specified) | 800 | 120 | 220 | – | – | – | EC50 (SARS-CoV-2 [3]): 100 nM; IC50 [4]: 150 nM; IC50 (SARS-CoV): 900 nM
CC(C)C[C@H](NC(=O)OC1CCC(F)(F)CC1)C(=O)N[C@@H](C[C@H]1CCNC1=O)C(O)S(=O)(=O)O (stereo partly specified) | 1600 | 110 | 120 | – | – | – | EC50 [7]: 210 nM; IC50 [4]: 80 nM; IC50 (SARS-CoV): 2200 nM
CCCCC1CCC(OC(=O)N[C@@H](CC(C)C)C(=O)N[C@@H](C[C@H]2CCNC2=O)C(O)S(=O)(=O)O)CC1 (stereo partly specified) | 1100 | 130 | 170 | – | – | – | EC50 [7]: 530 nM; IC50 [4]: 130 nM; IC50 (SARS-CoV): 1000 nM
Cc1c(CN(C)C(=O)/C=C/c2cnc3c(c2)CC[C@@H](N)C(=O)N3)oc2ccccc12.Cl | – | – | – | ≤ 4 | ≤ 4 | ≤ 4 | IC50 [8]: < 10 nM; IC50 [9]: < 10 nM; MIC [10]: ≤ 4 µg/mL
CC(C)C[C@H](NC(=O)OC1CCCCC1)C(=O)N[C@@H](C[C@H]1CCNC1=O)C(O)S(=O)(=O)O (stereo partly specified) | 3500 | 80 | 70 | – | – | – | EC50 [7]: 80 nM; IC50 [4]: 150 nM; IC50 (SARS-CoV): 3800 nM
Cc1c(CN(C)C(=O)/C=C/c2cnc3c(c2)NC[C@@H](N)C(=O)N3)oc2ccccc12.Cl | – | – | – | < 4 | < 4 | < 4 | IC50 [8]: < 10 nM; IC50 [9]: < 10 nM; MIC [10]: < 4 µg/mL
Cc1oc2c(N)cccc2c1CN(C)C(=O)/C=C/c1cnc2c(c1)N[C@H](C)[C@H](N)C(=O)N2 | – | – | – | ≤ 4 | ≤ 4 | ≤ 4 | IC50 [8]: < 10 nM
CCCC1CCC(OC(=O)N[C@@H](CC(C)C)C(=O)N[C@H](C=O)C[C@H]2CCNC2=O)CC1 (stereo partly specified) | 1600 | 130 | 120 | – | – | – | EC50 [7]: 50 nM; EC50 (SARS-CoV-2 [3]): 100 nM
Cc1oc2c(N)cccc2c1CN(C)C(=O)/C=C/c1cnc2c(c1)CCC(N1CCCC1)C(=O)N2 (stereo unspecified) | – | – | – | 8 (≈ 16.9 µM) | ≤ 4 | ≤ 4 | IC50 [9]: < 10 nM
COC(=O)N[C@H](C(=O)N1CCC[C@@H]1c1ncc(-c2cccc(-c3c4c(c(-c5cccc(-c6cnc([C@@H]7CCCN7C(=O)[C@H](NC(=O)OC)c7ccccc7)[nH]6)c5)c5c3C(C)(C)CC5)C(C)(C)CC4)c2)[nH]1)c1ccccc1 | – | – | – | – | – | – | EC50 (Hepatitis C virus [1]): 0.053 nM
Cc1c(CN(C)C(=O)/C=C/c2cnc3c(c2)CC[C@@H](N2CCCC2)C(=O)N3)oc2ccccc12 | – | – | – | ≤ 4 | ≤ 4 | ≤ 4 | IC50 [8]: < 10 nM; IC50 [9]: < 10 nM; MIC [10]: ≤ 4 µg/mL
COC(=O)N[C@@H](C(=O)N1CCC[C@H]1C(=O)Nc1cncc(-c2c3c(c(-c4cncc(NC(=O)[C@@H]5CCCN5C(=O)[C@H](NC(=O)OC)c5ccccc5)c4)c4c2C(C)(C)CC4)C(C)(C)CC3)c1)c1ccccc1 | – | – | – | – | – | – | EC50 (Hepatitis C virus [2]): > 0.5 nM
Cc1c(CN(C)C(=O)/C=C/c2cnc3c(c2)NC[C@@H](N2C[C@@H](C)O[C@@H](C)C2)C(=O)N3)oc2ccccc12 | – | – | – | – | ≤ 4 | ≤ 4 | IC50 [9]: < 10 nM; MIC [10]: 16 µg/mL (≈ 31.8 µM)
Cc1c(CN(C)C(=O)/C=C/c2cnc3c(c2)N[C@H](C)[C@H](N)C(=O)N3)oc2ccccc12 | – | – | – | ≤ 4 | ≤ 4 | ≤ 4 | IC50 [8]: < 10 nM
